Laboratory results from paper PMC7026080, “Phenotypic high-throughput screening platform identifies novel chemotypes for necroptosis inhibition” (Cell Death Discovery, 2020).

Assays:
HT29 cells = experiment: Necroptosis protection in HT29 cells (TNF-α + Smac mimetic + Z-VAD-FMK), 24 h; format: cell-based, human; conditions: compounds at 10 μM, hTNF-α + Smac mimetic + Z-VAD-FMK
Procedure: (§1) Necroptosis inhibition properties were further examined using two additional cellular models of regulated necrosis. First, in human adenocarcinoma HT29 cells, and then in immortalized murine microglial BV2 cells, where we co-incubated a mixture of human or murine TNF-α, Smac mimetic […], pan-caspase inhibitor Z-VAD-FMK[29] or Z-VAD-FMK alone, and tested compounds at 10 μM for 24 h. […] In parallel, preliminary data for compound liver toxicity was extrapolated using HepG2 cells.
(§2) Fig. 3 Secondary-stage cascade for hit validation and compound refinement for further studies. a Compound ability to prevent necroptosis execution in HT29 cells co-incubated with 20 ng/mL hTNF-α (T) together with 250 nM Smac mimetic BV6 (S) and […] Z-VAD-FMK (Z), and selected compounds at 10 μM for 24 h. b Selected compound ability to prevent necroptosis execution in BV2 cells co-incubated with 25 μM Z-VAD-FMK (Z) and compounds at 10 μM for 24 h. c Selected compound toxicity evaluation in HepG2 cells incubated with test compounds at 100 and 50 μM for 24 h. Data represent mean values ± SEM of three independent experiments normalized to untreated control. Cell viability was assessed using a luminescence-based readout for AK release and ATP production, and a colorimetric-based readout for LDH release and MTS metabolism. ns, not significant; *p < 0.05, ***p < 0.001.
(§3) Cell treatments and viability assays. […]

MDR1 = experiment: MDCK-MDR1 cell-based permeability assay; format: in vitro ADME; conditions: dog
[1] = system: necroptosis proteins in liver tissue; experiment: p-MLKL/MLKL and p-RIPK3/RIPK3 immunoblot in liver tissue of SIRS mice; format: in vivo, mouse; conditions: compared with mTNF-α alone; 5 mg/kg i.v.
Procedure: Representative blots and quantification of p-RIPK3/RIPK3 and p-MLKL/MLKL ratios in fold-change from control. Blots were normalized to endogenous β-actin.
Further details are provided as Supplementary Information.
Animal studies, injections and monitoring. Male C57BL/6J mice with 18-26 g (Charles River Laboratories International, Inc., Wilmington, MA, USA) were used at the age of 8-14 weeks. Five to seven animals were included in each experimental group. All animal experiments were carried out with the permission of local animal ethical committee in accordance with the EU Directive (2010/63/EU), Portuguese laws (DL113/2013, 2880/2015, 260/2016) and all relevant legislations. Animals received humane care in a temperature-controlled environment with a 12 h light-dark cycle and ad libitum access to pelleted chow and water, complying with the Institute’s guidelines, and as outlined in the “Guide for the Care and Use of Laboratory Animals” prepared by the National Academy of Sciences and published by the National Institutes of Health (NIH publication 86-23 revised 1985). […] Nec-1 was diluted as follows (v/v): 48% PBS 1X, 17% DMSO and 35% PEG 400. […] All injections were administered intravenously (i.v.) in 100 µL volume each.

BV2 cells = experiment: Necroptosis protection in BV2 cells (Z-VAD-FMK), 24 h; format: cell-based, murine; conditions: compounds at 10 μM, 25 μM Z-VAD-FMK
Procedure: as §1, §2, §3

[2] = Rat hepatic clearance (in vitro); format: in vitro ADME

Structure (SMILES) | Protection from necroptosis in HT29 cells (membrane integrity by AK and LDH release, ATP levels) (HT29 cells) | efflux ratio (MDR1) | p-MLKL/MLKL ratio in mouse liver tissue [1] | p-RIPK3/RIPK3 ratio in mouse liver tissue [1] | Protection from necroptosis execution in BV2 cells (BV2 cells) | Rat hepatic clearance (in vitro) rate [2]
CN1C(=O)C(Cc2c[nH]c3ccccc23)NC1=S (stereo not drawn) [Nec-1, necrostatin-1] | completely rescued membrane integrity and ensured metabolic cell viability | 0.45 | decreased | decreased | complete protection against necroptosis execution | 
O=C(c1cnn(Cc2ccccc2)c1)N1CCOc2ccccc2C1 [SN-6109] |  |  |  |  |  | 87 μL/min/1E6
